Among the data in the NIST ThermoML archive (doi:10.1021/je400803f) are mass density values, retold here.

Numbers after ± are expanded uncertainties.

For the data set the following is noted: 101.33 kPa, Liquid, Vibrating tube method.

What is called mass density is the mass of a sample divided by its volume. On to `CCCC[N+]1(C)CCCC1.FC(F)(F)C(F)(F)[P-](F)(F)(F)(C(F)(F)C(F)(F)F)C(F)(F)C(F)(F)F`, for which the mass density (293.15 K) was determined as 1588.56 ± 0.76 kg/m3; the mass density (298.15 K) is 1583.15 ± 0.76 kg/m3; the mass density (303.15 K) was found to be 1577.67 ± 0.75 kg/m3; the mass density (308.15 K) is given as 1572.16 ± 0.75 kg/m3; the mass density (313.15 K) came out at 1566.62 ± 0.74 kg/m3; the mass density (318.15 K) came to 1561.06 ± 0.74 kg/m3. In addition, the mass density (323.15 K) amounted to 1555.48 ± 0.73 kg/m3.
As to `CCCCN(C=O)CCCC` [N,N-dibutylformamide], the mass density runs as follows: (293.15 K) 879.05 ± 0.23 kg/m3; (298.15 K) 875.12 ± 0.23 kg/m3; (303.15 K) 871.17 ± 0.23 kg/m3; (308.15 K) 867.15 ± 0.23 kg/m3; (313.15 K) 863.11 ± 0.23 kg/m3; (318.15 K) 859.01 ± 0.23 kg/m3. For the same compound, for the setting “323.15 K”, the mass density was found to be 854.82 ± 0.23 kg/m3.
Take `CC(=O)N(C)C` [N,N-dimethylethanamide]: the mass density runs as follows: (293.15 K) 940.92 ± 0.23 kg/m3; (298.15 K) 936.3 ± 0.23 kg/m3; (303.15 K) 931.62 ± 0.23 kg/m3; (308.15 K) 926.89 ± 0.23 kg/m3; (313.15 K) 922.09 ± 0.23 kg/m3; (318.15 K) 917.23 ± 0.23 kg/m3. Moreover, under “323.15 K”, the mass density was 912.23 ± 0.23 kg/m3.
For `CCNC=O` [N-ethylformamide], the mass density runs as follows: (293.15 K) 951.59 ± 0.07 kg/m3; (298.15 K) 947.48 ± 0.07 kg/m3; (303.15 K) 943.29 ± 0.07 kg/m3; (308.15 K) 939.04 ± 0.07 kg/m3; (313.15 K) 934.78 ± 0.07 kg/m3; (318.15 K) 930.45 ± 0.07 kg/m3. Besides, the mass density (323.15 K) came out at 926.06 ± 0.08 kg/m3.
In the case of `CNC=O` [N-methylformamide], the mass density is, setting by setting: (293.15 K) 1003.35 ± 0.23 kg/m3; (298.15 K) 998.91 ± 0.23 kg/m3; (303.15 K) 994.49 ± 0.23 kg/m3; (308.15 K) 990.01 ± 0.23 kg/m3; (313.15 K) 985.47 ± 0.23 kg/m3; (318.15 K) 980.88 ± 0.23 kg/m3. Moreover, the mass density (323.15 K) is listed as 976.24 ± 0.23 kg/m3.
Consider `CN(C)C=O` [dimethylformamide], for which the mass density (293.15 K) stood at 948.72 ± 0.23 kg/m3; the mass density (298.15 K) is 943.86 ± 0.23 kg/m3; the mass density (303.15 K) is 939 ± 0.23 kg/m3; the mass density (308.15 K) was found to be 934.08 ± 0.23 kg/m3; the mass density (313.15 K) is on record as 929.13 ± 0.23 kg/m3; the mass density (318.15 K) is 924.06 ± 0.23 kg/m3. Moreover, the mass density (323.15 K) was determined as 918.96 ± 0.23 kg/m3.
